Source: ChEMBL document CHEMBL4308841, “Synthesis, in vitro antiproliferative activity, and kinase inhibitory effects of pyrazole-containing diarylureas and diarylamides” (Eur J Med Chem, 2018)

What follows are compounds tested on KM12 (assay: Growth inhibition of human KM12 cells assessed as cell growth at 10 uM incubated for 48 hrs by sulforhodamine B assay relative to control). Conditions: KM12, 48 h, read-out: Activity.
Format: functional

Compound	growth at 10 µM
COc1cc(Cl)cc(-c2nn(-c3cccc(NC(=O)c4cccc(C(F)(F)F)c4)c3)cc2-c2ccncc2)c1	43.7%

What follows are compounds tested on OVCAR-8 (assay: Growth inhibition of human OVCAR8 cells assessed as cell growth at 10 uM incubated for 48 hrs by sulforhodamine B assay relative to control). Conditions: OVCAR-8, 48 h, read-out: Activity.
Format: functional

Compound	growth at 10 µM
COc1cc(Cl)cc(-c2nn(-c3cccc(NC(=O)c4cccc(C(F)(F)F)c4)c3)cc2-c2ccncc2)c1	42%

What follows are compounds tested on SK-MEL-28 (assay: Growth inhibition of human SK-MEL-28 cells assessed as cell growth at 10 uM incubated for 48 hrs by sulforhodamine B assay relative to control). Conditions: SK-MEL-28, 48 h, read-out: Activity.
Format: functional

Compound	growth at 10 µM
COc1cc(Cl)cc(-c2nn(-c3cccc(NC(=O)c4cccc(C(F)(F)F)c4)c3)cc2-c2ccncc2)c1	70.3%

What follows are compounds tested on NCI-H23 (assay: Growth inhibition of human NCI-H23 cells assessed as cell growth at 10 uM incubated for 48 hrs by sulforhodamine B assay relative to control). Conditions: NCI-H23, 48 h, read-out: Activity.
Format: functional

Compound	growth at 10 µM
COc1cc(Cl)cc(-c2nn(-c3cccc(NC(=O)c4cccc(C(F)(F)F)c4)c3)cc2-c2ccncc2)c1	55.6%

Each compound was assayed on RPMI-8226 (assay: Growth inhibition of human RPMI8226 cells assessed as cell growth at 10 uM incubated for 48 hrs by sulforhodamine B assay relative to control). Conditions: RPMI-8226, 48 h, read-out: Activity.
Format: functional

Compound	growth at 10 µM
COc1cc(Cl)cc(-c2nn(-c3cccc(NC(=O)c4cccc(C(F)(F)F)c4)c3)cc2-c2ccncc2)c1	31.5%

The compounds below were run on CCRF-CEM (assay: Growth inhibition of human CCRF-CEM cells assessed as cell growth at 10 uM incubated for 48 hrs by sulforhodamine B assay relative to control). Conditions: read-out: Activity.
Format: functional

Compound	growth at 10 µM
COc1cc(Cl)cc(-c2nn(-c3cccc(NC(=O)c4cccc(C(F)(F)F)c4)c3)cc2-c2ccncc2)c1	42.3%

Each compound was assayed on HCT-15 (assay: Growth inhibition of human HCT15 cells assessed as cell growth at 10 uM incubated for 48 hrs by sulforhodamine B assay relative to control). Conditions: HCT-15, 48 h, read-out: Activity.
Format: functional

Compound	growth at 10 µM
COc1cc(Cl)cc(-c2nn(-c3cccc(NC(=O)c4cccc(C(F)(F)F)c4)c3)cc2-c2ccncc2)c1	33.2%

Each compound was assayed on MCF7 (assay: Growth inhibition of human MCF7 cells assessed as cell growth at 10 uM incubated for 48 hrs by sulforhodamine B assay relative to control). Conditions: MCF7, 48 h, read-out: Activity.
Format: functional

Compound	growth at 10 µM
COc1cc(Cl)cc(-c2nn(-c3cccc(NC(=O)c4cccc(C(F)(F)F)c4)c3)cc2-c2ccncc2)c1	39.4%

Each compound was assayed on A498 (assay: Growth inhibition of human A498 cells assessed as cell growth at 10 uM incubated for 48 hrs by sulforhodamine B assay relative to control). Conditions: A498, 48 h, read-out: Activity.
Format: functional

Compound	growth at 10 µM
COc1cc(Cl)cc(-c2nn(-c3cccc(NC(=O)c4cccc(C(F)(F)F)c4)c3)cc2-c2ccncc2)c1	21.2%

Each compound was assayed on SR (assay: Growth inhibition of human SR cells assessed as cell growth at 10 uM incubated for 48 hrs by sulforhodamine B assay relative to control). Conditions: read-out: Activity.
Format: functional

Compound	growth at 10 µM
COc1cc(Cl)cc(-c2nn(-c3cccc(NC(=O)c4cccc(C(F)(F)F)c4)c3)cc2-c2ccncc2)c1	29.1%

The compounds below were run on HCC 2998 (assay: Growth inhibition of human HCC2998 cells assessed as cell growth at 10 uM incubated for 48 hrs by sulforhodamine B assay relative to control). Conditions: HCC 2998, 48 h, read-out: Activity.
Format: functional

Compound	growth at 10 µM
COc1cc(Cl)cc(-c2nn(-c3cccc(NC(=O)c4cccc(C(F)(F)F)c4)c3)cc2-c2ccncc2)c1	54.6%

The compounds below were run on BT-549 (assay: Growth inhibition of human BT549 cells assessed as cell growth at 10 uM incubated for 48 hrs by sulforhodamine B assay relative to control). Conditions: BT-549, 48 h, read-out: Activity.
Format: functional

Compound	growth at 10 µM
COc1cc(Cl)cc(-c2nn(-c3cccc(NC(=O)c4cccc(C(F)(F)F)c4)c3)cc2-c2ccncc2)c1	89.5%

What follows are compounds tested on OVCAR-5 (assay: Growth inhibition of human OVCAR5 cells assessed as cell growth at 10 uM incubated for 48 hrs by sulforhodamine B assay relative to control). Conditions: OVCAR-5, 48 h, read-out: Activity.
Format: functional

Compound	growth at 10 µM
COc1cc(Cl)cc(-c2nn(-c3cccc(NC(=O)c4cccc(C(F)(F)F)c4)c3)cc2-c2ccncc2)c1	84%

What follows are compounds tested on SF-268 (assay: Growth inhibition of human SF268 cells assessed as cell growth at 10 uM incubated for 48 hrs by sulforhodamine B assay relative to control). Conditions: SF-268, 48 h, read-out: Activity.
Format: functional

Compound	growth at 10 µM
COc1cc(Cl)cc(-c2nn(-c3cccc(NC(=O)c4cccc(C(F)(F)F)c4)c3)cc2-c2ccncc2)c1	77.3%

What follows are compounds tested on SNB-19 (assay: Growth inhibition of human SNB19 cells assessed as cell growth at 10 uM incubated for 48 hrs by sulforhodamine B assay relative to control). Conditions: SNB-19, 48 h, read-out: Activity.
Format: functional

Compound	growth at 10 µM
COc1cc(Cl)cc(-c2nn(-c3cccc(NC(=O)c4cccc(C(F)(F)F)c4)c3)cc2-c2ccncc2)c1	82.2%

Each compound was assayed on NCI-H322M (assay: Growth inhibition of human NCI-H322M cells assessed as cell growth at 10 uM incubated for 48 hrs by sulforhodamine B assay relative to control). Conditions: read-out: Activity.
Format: functional

Compound	growth at 10 µM
COc1cc(Cl)cc(-c2nn(-c3cccc(NC(=O)c4cccc(C(F)(F)F)c4)c3)cc2-c2ccncc2)c1	78.6%

Each compound was assayed on Malme-3M (assay: Growth inhibition of human MALME-3M cells assessed as cell growth at 10 uM incubated for 48 hrs by sulforhodamine B assay relative to control). Conditions: read-out: Activity.
Format: functional

Compound	growth at 10 µM
COc1cc(Cl)cc(-c2nn(-c3cccc(NC(=O)c4cccc(C(F)(F)F)c4)c3)cc2-c2ccncc2)c1	92.4%

What follows are compounds tested on PC-3 (assay: Growth inhibition of human PC3 cells assessed as cell growth at 10 uM incubated for 48 hrs by sulforhodamine B assay relative to control). Conditions: PC-3, 48 h, read-out: Activity.
Format: functional

Compound	growth at 10 µM
COc1cc(Cl)cc(-c2nn(-c3cccc(NC(=O)c4cccc(C(F)(F)F)c4)c3)cc2-c2ccncc2)c1	23.1%

What follows are compounds tested on Hs-578T (assay: Growth inhibition of human Hs578T cells assessed as cell growth at 10 uM incubated for 48 hrs by sulforhodamine B assay relative to control). Conditions: read-out: Activity.
Format: functional

Compound	growth at 10 µM
COc1cc(Cl)cc(-c2nn(-c3cccc(NC(=O)c4cccc(C(F)(F)F)c4)c3)cc2-c2ccncc2)c1	62.2%

These compounds were tested on K562 (assay: Growth inhibition of human K562 cells assessed as cell growth at 10 uM incubated for 48 hrs by sulforhodamine B assay relative to control). Conditions: K562, 48 h, read-out: Activity.
Format: functional

Compound	growth at 10 µM
COc1cc(Cl)cc(-c2nn(-c3cccc(NC(=O)c4cccc(C(F)(F)F)c4)c3)cc2-c2ccncc2)c1	26%

Each compound was assayed on SW-620 (assay: Growth inhibition of human SW620 cells assessed as cell growth at 10 uM incubated for 48 hrs by sulforhodamine B assay relative to control). Conditions: SW-620, 48 h, read-out: Activity.
Format: functional

Compound	growth at 10 µM
COc1cc(Cl)cc(-c2nn(-c3cccc(NC(=O)c4cccc(C(F)(F)F)c4)c3)cc2-c2ccncc2)c1	77%

What follows are compounds tested on HL-60(TB) (assay: Growth inhibition of human HL-60(TB) cells assessed as cell growth at 10 uM incubated for 48 hrs by sulforhodamine B assay relative to control). Conditions: HL-60, 48 h, read-out: Activity.
Format: functional

Compound	growth at 10 µM
COc1cc(Cl)cc(-c2nn(-c3cccc(NC(=O)c4cccc(C(F)(F)F)c4)c3)cc2-c2ccncc2)c1	67.3%

Each compound was assayed on SK-MEL-5 (assay: Growth inhibition of human SK-MEL-5 cells assessed as cell growth at 10 uM incubated for 48 hrs by sulforhodamine B assay relative to control). Conditions: SK-MEL-5, 48 h, read-out: Activity.
Format: functional

Compound	growth at 10 µM
COc1cc(Cl)cc(-c2nn(-c3cccc(NC(=O)c4cccc(C(F)(F)F)c4)c3)cc2-c2ccncc2)c1	70.7%

These compounds were tested on U-251 (assay: Growth inhibition of human U251 cells assessed as cell growth at 10 uM incubated for 48 hrs by sulforhodamine B assay relative to control). Conditions: U-251, 48 h, read-out: Activity.
Format: functional

Compound	growth at 10 µM
COc1cc(Cl)cc(-c2nn(-c3cccc(NC(=O)c4cccc(C(F)(F)F)c4)c3)cc2-c2ccncc2)c1	49.2%

These compounds were tested on OVCAR-4 (assay: Growth inhibition of human OVCAR4 cells assessed as cell growth at 10 uM incubated for 48 hrs by sulforhodamine B assay relative to control). Conditions: OVCAR-4, 48 h, read-out: Activity.
Format: functional

Compound	growth at 10 µM
COc1cc(Cl)cc(-c2nn(-c3cccc(NC(=O)c4cccc(C(F)(F)F)c4)c3)cc2-c2ccncc2)c1	71.8%

What follows are compounds tested on COLO 205 (assay: Growth inhibition of human COLO205 cells assessed as cell growth at 10 uM incubated for 48 hrs by sulforhodamine B assay relative to control). Conditions: COLO 205, 48 h, read-out: Activity.
Format: functional

Compound	growth at 10 µM
COc1cc(Cl)cc(-c2nn(-c3cccc(NC(=O)c4cccc(C(F)(F)F)c4)c3)cc2-c2ccncc2)c1	68.5%

These compounds were tested on T47D (assay: Growth inhibition of human T47D cells assessed as cell growth at 10 uM incubated for 48 hrs by sulforhodamine B assay relative to control). Conditions: read-out: Activity.
Format: functional

Compound	growth at 10 µM
COc1cc(Cl)cc(-c2nn(-c3cccc(NC(=O)c4cccc(C(F)(F)F)c4)c3)cc2-c2ccncc2)c1	36.6%

The compounds below were run on SNB-75 (assay: Growth inhibition of human SNB75 cells assessed as cell growth at 10 uM incubated for 48 hrs by sulforhodamine B assay relative to control). Conditions: SNB-75, 48 h, read-out: Activity.
Format: functional

Compound	growth at 10 µM
COc1cc(Cl)cc(-c2nn(-c3cccc(NC(=O)c4cccc(C(F)(F)F)c4)c3)cc2-c2ccncc2)c1	53.9%

These compounds were tested on M14 (assay: Growth inhibition of human M14 cells assessed as cell growth at 10 uM incubated for 48 hrs by sulforhodamine B assay relative to control). Conditions: M14, 48 h, read-out: Activity.
Format: functional

Compound	growth at 10 µM
COc1cc(Cl)cc(-c2nn(-c3cccc(NC(=O)c4cccc(C(F)(F)F)c4)c3)cc2-c2ccncc2)c1	56.3%

What follows are compounds tested on MDA-MB-231 (assay: Growth inhibition of human MDA-MB-231 cells assessed as cell growth at 10 uM incubated for 48 hrs by sulforhodamine B assay relative to control). Conditions: MDA-MB-231, 48 h, read-out: Activity.
Format: functional

Compound	growth at 10 µM
COc1cc(Cl)cc(-c2nn(-c3cccc(NC(=O)c4cccc(C(F)(F)F)c4)c3)cc2-c2ccncc2)c1	21.4%

What follows are compounds tested on SF-295 (assay: Growth inhibition of human SF295 cells assessed as cell growth at 10 uM incubated for 48 hrs by sulforhodamine B assay relative to control). Conditions: SF-295, 48 h, read-out: Activity.
Format: functional

Compound	growth at 10 µM
COc1cc(Cl)cc(-c2nn(-c3cccc(NC(=O)c4cccc(C(F)(F)F)c4)c3)cc2-c2ccncc2)c1	37.9%

These compounds were tested on SF-539 (assay: Growth inhibition of human SF539 cells assessed as cell growth at 10 uM incubated for 48 hrs by sulforhodamine B assay relative to control). Conditions: SF-539, 48 h, read-out: Activity.
Format: functional

Compound	growth at 10 µM
COc1cc(Cl)cc(-c2nn(-c3cccc(NC(=O)c4cccc(C(F)(F)F)c4)c3)cc2-c2ccncc2)c1	64.2%

These compounds were tested on A549 (assay: Growth inhibition of human A549/ATCC cells assessed as cell growth at 10 uM incubated for 48 hrs by sulforhodamine B assay relative to control). Conditions: A549, 48 h, read-out: Activity.
Format: functional

Compound	growth at 10 µM
COc1cc(Cl)cc(-c2nn(-c3cccc(NC(=O)c4cccc(C(F)(F)F)c4)c3)cc2-c2ccncc2)c1	39.1%
